Results from ChEMBL document CHEMBL3885861, “Open TG-GATES”.

Species: Rattus norvegicus
Assay: Open TG-GATES - Regimen: Single
Type: toxicity, organism-based, Sprague-Dawley
Design: regimen Single, gender Male, age 6 weeks
Conditions: in vivo, po, 0 mg/kg, route gavage, dose level Control; for APTT / Bas / Eos / Fbg / Hb / Ht / Lym / MCH / MCHC / MCV / Mono / Neu / PT / Plat / RBC / Ret / WBC: tissue Blood; for KIDNEY_L / KIDNEY_R / KIDNEY_TOTAL: tissue Kidney; for LIVER: tissue Liver; for A/G / ALP / ALT / AST / BUN / CRE / Ca / Cl / DBIL / GLC / IP / K / LDH / Na / PL / RALB / TBIL / TC / TG / TP / gamma-GTP: tissue Plasma

Structure (SMILES): C=CCO [ALLYL ALCOHOL]
- TERMINAL_BW (3 h): 221.5 g
- APTT (3 h): 19.5 s
- Bas (3 h): 0%
- Eos (3 h): 1%
- Fbg (3 h): 226.4 mg/dL
- Hb (3 h): 13.4 g/dL
- Ht (3 h): 39.2%
- Lym (3 h): 73.8%
- MCH (3 h): 20.8 pg
- MCHC (3 h): 34.3%
- MCV (3 h): 60.8 fL
- Mono (3 h): 3%
- Neu (3 h): 21.8%
- PT (3 h): 12.2 s
- Plat (3 h): 135.4 x10_4/uL
- RBC (3 h): 645 x10_4/ul
- Ret (3 h): 6.7%
- WBC (3 h): 82.7 x10_2/uL
- KIDNEY_L (3 h): 0.9 g
- KIDNEY_R (3 h): 0.9 g
- KIDNEY_TOTAL (3 h): 1.8 g
- LIVER (3 h): 9.9 g
- A/G (3 h): 1.4
- ALP (3 h): 946 IU/L
- ALT (3 h): 41.2 IU/L
- AST (3 h): 72.2 IU/L
- BUN (3 h): 11.2 mg/dL
- CRE (3 h): 0.4 mg/dL
- Ca (3 h): 10.8 mg/dL
- Cl (3 h): 102 meq/L
- DBIL (3 h): 0.3 mg/dL
- GLC (3 h): 192.4 mg/dL
- IP (3 h): 9.1 mg/dL
- K (3 h): 3.9 meq/L
- LDH (3 h): 190.8 IU/L
- Na (3 h): 140 meq/L
- PL (3 h): 176.2 mg/dL
- RALB (3 h): 3.2 g/dL
- TBIL (3 h): 0.4 mg/dL
- TC (3 h): 83.8 mg/dL
- TG (3 h): 186.2 mg/dL
- TP (3 h): 5.6 g/dL
- gamma-GTP (3 h): 1.2 IU/L
- TERMINAL_BW (6 h): 221.2 g
- APTT (6 h): 19.3 s
- Bas (6 h): 0%
- Eos (6 h): 1%
- Fbg (6 h): 235.8 mg/dL
- Hb (6 h): 13.4 g/dL
- Ht (6 h): 38.9%
- Lym (6 h): 73.2%
- MCH (6 h): 21.4 pg
- MCHC (6 h): 34.5%
- MCV (6 h): 62.1 fL
- Mono (6 h): 4.2%
- Neu (6 h): 21.6%
- PT (6 h): 12.2 s
- Plat (6 h): 124.2 x10_4/uL
- RBC (6 h): 626.2 x10_4/ul
- Ret (6 h): 7.3%
- WBC (6 h): 115.2 x10_2/uL
- KIDNEY_L (6 h): 0.9 g
- KIDNEY_R (6 h): 1 g
- KIDNEY_TOTAL (6 h): 1.9 g
- LIVER (6 h): 9.6 g
- A/G (6 h): 1.6
- ALP (6 h): 1049.2 IU/L
- ALT (6 h): 33.2 IU/L
- AST (6 h): 62.6 IU/L
- BUN (6 h): 10 mg/dL
- CRE (6 h): 0.4 mg/dL
- Ca (6 h): 10.5 mg/dL
- Cl (6 h): 102.8 meq/L
- DBIL (6 h): 0.086 mg/dL
- GLC (6 h): 199.6 mg/dL
- IP (6 h): 8.9 mg/dL
- K (6 h): 3.8 meq/L
- LDH (6 h): 195.6 IU/L
- Na (6 h): 140.8 meq/L
- PL (6 h): 146 mg/dL
- RALB (6 h): 3.4 g/dL
- TBIL (6 h): 0.1 mg/dL
- TC (6 h): 74.8 mg/dL
- TG (6 h): 66.2 mg/dL
- TP (6 h): 5.5 g/dL
- gamma-GTP (6 h): 1 IU/L
- TERMINAL_BW (9 h): 217.9 g
- APTT (9 h): 18.7 s
- Bas (9 h): 0%
- Eos (9 h): 1%
- Fbg (9 h): 219.6 mg/dL
- Hb (9 h): 13.2 g/dL
- Ht (9 h): 38.5%
- Lym (9 h): 74.8%
- MCH (9 h): 20.7 pg
- MCHC (9 h): 34.4%
- MCV (9 h): 60.2 fL
- Mono (9 h): 3.2%
- Neu (9 h): 20.4%
- PT (9 h): 12.5 s
- Plat (9 h): 132.1 x10_4/uL
- RBC (9 h): 639.8 x10_4/ul
- Ret (9 h): 6.9%
- WBC (9 h): 99.3 x10_2/uL
- KIDNEY_L (9 h): 1 g
- KIDNEY_R (9 h): 0.9 g
- KIDNEY_TOTAL (9 h): 1.9 g
- LIVER (9 h): 9.1 g
- A/G (9 h): 1.5
- ALP (9 h): 880.4 IU/L
- ALT (9 h): 28.2 IU/L
- AST (9 h): 62.2 IU/L
- BUN (9 h): 12 mg/dL
- CRE (9 h): 0.4 mg/dL
- Ca (9 h): 10.4 mg/dL
- Cl (9 h): 101.6 meq/L
- DBIL (9 h): 0.08 mg/dL
- GLC (9 h): 208.2 mg/dL
- IP (9 h): 10.7 mg/dL
- K (9 h): 3.6 meq/L
- LDH (9 h): 158.4 IU/L
- Na (9 h): 141 meq/L
- PL (9 h): 148.4 mg/dL
- RALB (9 h): 3.3 g/dL
- TBIL (9 h): 0.1 mg/dL
- TC (9 h): 72.8 mg/dL
- TG (9 h): 81 mg/dL
- TP (9 h): 5.6 g/dL
- gamma-GTP (9 h): 1 IU/L
- TERMINAL_BW (24 h): 231.2 g
- APTT (24 h): 19.4 s
- Bas (24 h): 0%
- Eos (24 h): 1%
- Fbg (24 h): 235.8 mg/dL
- Hb (24 h): 13.1 g/dL
- Ht (24 h): 38.5%
- Lym (24 h): 78.2%
- MCH (24 h): 20.5 pg
- MCHC (24 h): 34.1%
- MCV (24 h): 60.3 fL
- Mono (24 h): 3%
- Neu (24 h): 17.2%
- PT (24 h): 12.2 s
- Plat (24 h): 140 x10_4/uL
- RBC (24 h): 640.6 x10_4/ul
- Ret (24 h): 6.2%
- WBC (24 h): 99.8 x10_2/uL
- KIDNEY_L (24 h): 0.9 g
- KIDNEY_R (24 h): 1 g
- KIDNEY_TOTAL (24 h): 1.9 g
- LIVER (24 h): 10.8 g
- A/G (24 h): 1.5
- ALP (24 h): 963.4 IU/L
- ALT (24 h): 35.8 IU/L
- AST (24 h): 63.2 IU/L
- BUN (24 h): 15.8 mg/dL
- CRE (24 h): 0.4 mg/dL
- Ca (24 h): 10.8 mg/dL
- Cl (24 h): 102 meq/L
- DBIL (24 h): 0.098 mg/dL
- GLC (24 h): 196.4 mg/dL
- IP (24 h): 7.1 mg/dL
- K (24 h): 4 meq/L
- LDH (24 h): 186.4 IU/L
- Na (24 h): 140.8 meq/L
- PL (24 h): 147.6 mg/dL
- RALB (24 h): 3.3 g/dL
- TBIL (24 h): 0.2 mg/dL
- TC (24 h): 74.2 mg/dL
- TG (24 h): 116 mg/dL
- TP (24 h): 5.6 g/dL
- gamma-GTP (24 h): 0.8 IU/L
